# According to patent publication US11007206B2, “Cyclic boronic acid ester derivatives and therapeutic uses thereof” (Melinta Subsidiary Corp., priority 2012, dated 2021):
# Key:
# P. aeruginosa = test: Potency of Biapenem with or without Compound I against P. aeruginosa (Example 4); type: cell-based
# [1] = Plasma pharmacokinetics of Compound I and Biapenem alone or in combination after 1.5 hour intravenous infusion in Sprague-Dawley rats (Example 3); type: in vivo; details: for Plasma pharmacokinetic parameters, alone versus in combination / AUC / clearance / half-life: Sprague-Dawley rats; for Plasma pharmacokinetic parameters, alone versus in combination: single intravenous infusion; for AUC / clearance / half-life: male, Sprague-Dawley, plasma, iv, 20 mg/kg, 1.5 hour intravenous infusion; for AUC / clearance / half-life / Biapenem Calc. Conc. in plasma: rat; for Biapenem Calc. Conc. in plasma: IV infusion
# Procedure: Example 3 provides a summary of the pharmacokinetic studies of Compound I alone or in combination with Biapenem following a single intravenous infusion dose in Sprague-Dawley rats. The pharmacokinetics of 20 mg/kg of Compound I, 20 mg/kg of Biapenem, and 20 mg/kg of Compound I in combination with 20 mg/kg of Biapenem after a 1.5 hour intravenous infusion were discussed.
# Biapenem power was purchased from Hisun Pharmaceuticals. Compound I was prepared using the method described in the U.S. Publication 2012/0040932 A1. 20 mg of biapenem was dissolved in 0.1 M NaH2PO4 for a basic stock solution. 100 mg of Compound I was dissolved in 30% 1N NaOH to ˜pH 5.0. For animal studies, these stock solutions were further diluted in 0.9% saline to the appropriate concentration.
# The specifications for animals used on this study were as follows: • Species: Rat • Strain: Sprague-Dawley • Gender: Male • Source: Charles River (Hollister, Calif.) • Number of Animals: 3 per study • Body Weight Range: 230-280 g at the start of the study
# After acclimation, rats (n=3) were administered single 20 mg/kg intravenous infusion doses of Compound I or Biapenem alone or in combination. Doses were infused over 1.5 hours via an indwelling femoral vein cannula. Plasma (˜0.3 mL) samples were collected from each rat at designated time points up to 24 hours. The time points are shown in section 2.9. Blood samples were centrifuged within 5 min of collection at 12000 g for 5 min to obtain plasma. The plasma samples were stored on −80° C. until analyzed.
# Compound I standard curves were prepared in rat plasma from 0.1 to 100 μg/mL. 50 μl aliquots of sample were placed in 1.5 mL microcentrifuge tubes. 20 μl of Compound II (10 μg/mL) was added as internal standard to each sample or standard. 20 μl of 30% trichloroacetic acid was then added to each sample or standard. The samples were mixed using a vortex mixer centrifuged for 10 min at 15,000 RPM using a tabletop centrifuge. The supernatant (approx. 120 μl) was removed and added to 100 μl of water in a 96-well plate. The samples were mixed again using a vortex mixer. 10 μl of each sample was injected onto an HPLC-MS for quantification.
# The HPLC-MS conditions for Compound I analysis are as follows: • Column: Phenomenex Fusion-RP or equivalent reversed-phase column, 5 um, 50×2 mm. • Flow rate: 0.6 mL/min. • Mobile phase A: 0.1% formic acid in water. • Mobile phase B: 0.1% formic acid in acetonitrile. • Gradient: 5-60% B in 1.5 min. • Mass spectrometer: Negative ion mode with electrospray ionization. • MS/MS: Compound I-Q1-m/e=296, Q3-m/e=234. • Compound II-Q1-m/e=331, Q3-m/e=201.
# Biapenem standard curves were prepared in 50% plasma-50% 1M MOPS buffer, pH=7.4 from 1 to 250 ug/mL. 20 uL of sample or standard was added into a 96-well deep well plate. Then 500 uL of 10% water-45% methanol-45% acetonitrile containing 2 ug/mL of meropenem was used as an internal standard. The plate was vortexed for 15 min. at 3,000 RPM. 50 uL of supernatant was removed and added 300 uL of water. 10 uL of samples were injected onto an HPLC-MS system for quantification.
# The HPLC-MS conditions for Biaphenem analysis are as follows: • Column: Supelco Discovery HS F5 or equivalent pentafluorophenyl column, 5 um, 50×2.1 mm. • Flow rate: 0.6 mL/min. • Mobile phase A: 0.1% formic acid in water. • Mobile phase B: 0.1% formic acid in acetonitrile. • Gradient: 5-70% B in 1.9 min. • Mass spectrometer: Positive ion mode with electrospray ionization. • MS/MS: Biapenem-Q1-m/e=350.8, Q3-m/e=110.1. • meropenem-Q1-m/e=384.1, Q3-m/e=141.1
# Plasma concentrations were fit using a two compartment IV infusion model (WinNonlinVersion 5.3, Pharsight Corp, Mountain View, Calif.).
# [2] = 20 mg/kg Compound I in combination with 20 mg/kg Biapenem
smiles,measurement,setting,value
C[C@@H](O)[C@H]1C(=O)N2C(C(=O)[O-])=C(SC3Cn4cnc[n+]4C3)[C@H](C)[C@H]12 (stereo partly drawn) [Biapenem],Potency against P. aeruginosa,P. aeruginosa; Biapenem compared with meropenem,potency similar to meropenem
same,"Plasma pharmacokinetic parameters, alone versus in combination",[1],unchanged
same,AUC,[1]; [2],10100 ± 1130 ng·h/mL
same,clearance,[1]; [2],33.8 mL/min/kg
same,half-life,[1]; [2],13.2 ± 0.6 min
same,AUC,[1]; administered alone,8950 ± 890 ng·h/mL
same,clearance,[1]; administered alone,38.2 mL/min/kg
same,half-life,[1]; administered alone,12.6 ± 0.6 min
same,Biapenem Calc. Conc. in plasma,"[1]; sample r.p. # 7.10 (first line), 20 mg/kg Compound I in combination with 20 mg/kg Biapenem",0.100 µg/mL
same,Biapenem Calc. Conc. in plasma,"[1]; sample r.p. # 7.10 (second line), 20 mg/kg Compound I in combination with 20 mg/kg Biapenem",<0 µg/mL
same,Biapenem Calc. Conc. in plasma,"[1]; sample r.p. # 7.1, 20 mg/kg Compound I in combination with 20 mg/kg Biapenem",5.61 µg/mL
same,Biapenem Calc. Conc. in plasma,"[1]; sample r.p. # 7.2, 20 mg/kg Compound I in combination with 20 mg/kg Biapenem",7.98 µg/mL
same,Biapenem Calc. Conc. in plasma,"[1]; sample r.p. # 7.3, 20 mg/kg Compound I in combination with 20 mg/kg Biapenem",5.08 µg/mL
same,Biapenem Calc. Conc. in plasma,"[1]; sample r.p. # 7.4, 20 mg/kg Compound I in combination with 20 mg/kg Biapenem",6.47 µg/mL
same,Biapenem Calc. Conc. in plasma,"[1]; sample r.p. # 7.5, 20 mg/kg Compound I in combination with 20 mg/kg Biapenem",3.03 µg/mL
same,Biapenem Calc. Conc. in plasma,"[1]; sample r.p. # 7.6, 20 mg/kg Compound I in combination with 20 mg/kg Biapenem",1.89 µg/mL
same,Biapenem Calc. Conc. in plasma,"[1]; sample r.p. # 7.7, 20 mg/kg Compound I in combination with 20 mg/kg Biapenem",1.22 µg/mL
same,Biapenem Calc. Conc. in plasma,"[1]; sample r.p. # 7.8, 20 mg/kg Compound I in combination with 20 mg/kg Biapenem",0.103 µg/mL
same,Biapenem Calc. Conc. in plasma,"[1]; sample r.p. # 7.9, 20 mg/kg Compound I in combination with 20 mg/kg Biapenem",0.0321 µg/mL
same,Biapenem Calc. Conc. in plasma,"[1]; sample r.p. # 8.10 (first line), 20 mg/kg Compound I in combination with 20 mg/kg Biapenem",0.0587 µg/mL
same,Biapenem Calc. Conc. in plasma,"[1]; sample r.p. # 8.10 (second line), 20 mg/kg Compound I in combination with 20 mg/kg Biapenem",No Peak
same,Biapenem Calc. Conc. in plasma,"[1]; sample r.p. # 8.1, 20 mg/kg Compound I in combination with 20 mg/kg Biapenem",4.40 µg/mL
same,Biapenem Calc. Conc. in plasma,"[1]; sample r.p. # 8.2, 20 mg/kg Compound I in combination with 20 mg/kg Biapenem",5.21 µg/mL
same,Biapenem Calc. Conc. in plasma,"[1]; sample r.p. # 8.3, 20 mg/kg Compound I in combination with 20 mg/kg Biapenem",7.28 µg/mL
same,Biapenem Calc. Conc. in plasma,"[1]; sample r.p. # 8.4, 20 mg/kg Compound I in combination with 20 mg/kg Biapenem",2.71 µg/mL
same,Biapenem Calc. Conc. in plasma,"[1]; sample r.p. # 8.5, 20 mg/kg Compound I in combination with 20 mg/kg Biapenem",1.87 µg/mL
same,Biapenem Calc. Conc. in plasma,"[1]; sample r.p. # 8.6, 20 mg/kg Compound I in combination with 20 mg/kg Biapenem",1.52 µg/mL
same,Biapenem Calc. Conc. in plasma,"[1]; sample r.p. # 8.7, 20 mg/kg Compound I in combination with 20 mg/kg Biapenem",0.828 µg/mL
same,Biapenem Calc. Conc. in plasma,"[1]; sample r.p. # 8.8, 20 mg/kg Compound I in combination with 20 mg/kg Biapenem",0.0353 µg/mL
same,Biapenem Calc. Conc. in plasma,"[1]; sample r.p. # 8.9, 20 mg/kg Compound I in combination with 20 mg/kg Biapenem",0.0393 µg/mL
same,Biapenem Calc. Conc. in plasma,"[1]; sample r.p. # 9.10 (first line), 20 mg/kg Compound I in combination with 20 mg/kg Biapenem",0.196 µg/mL
same,Biapenem Calc. Conc. in plasma,"[1]; sample r.p. # 9.10 (second line), 20 mg/kg Compound I in combination with 20 mg/kg Biapenem",<0 µg/mL
same,Biapenem Calc. Conc. in plasma,"[1]; sample r.p. # 9.1, 20 mg/kg Compound I in combination with 20 mg/kg Biapenem",3.86 µg/mL
same,Biapenem Calc. Conc. in plasma,"[1]; sample r.p. # 9.2, 20 mg/kg Compound I in combination with 20 mg/kg Biapenem",7.34 µg/mL
same,Biapenem Calc. Conc. in plasma,"[1]; sample r.p. # 9.3, 20 mg/kg Compound I in combination with 20 mg/kg Biapenem",9.20 µg/mL
same,Biapenem Calc. Conc. in plasma,"[1]; sample r.p. # 9.5, 20 mg/kg Compound I in combination with 20 mg/kg Biapenem",4.90 µg/mL
same,Biapenem Calc. Conc. in plasma,"[1]; sample r.p. # 9.6, 20 mg/kg Compound I in combination with 20 mg/kg Biapenem",2.16 µg/mL
same,Biapenem Calc. Conc. in plasma,"[1]; sample r.p. # 9.7, 20 mg/kg Compound I in combination with 20 mg/kg Biapenem",1.69 µg/mL
same,Biapenem Calc. Conc. in plasma,"[1]; sample r.p. # 9.8, 20 mg/kg Compound I in combination with 20 mg/kg Biapenem",0.0705 µg/mL
same,Biapenem Calc. Conc. in plasma,"[1]; sample r.p. # 9.9, 20 mg/kg Compound I in combination with 20 mg/kg Biapenem",0.00349 µg/mL
O=C(O)C[C@@H]1CC[C@H](NC(=O)Cc2cccs2)B(O)O1 [Compound I],Enhancement of Biapenem potency by the addition of Compound I,P. aeruginosa; P. aeruginosa,no enhancement
same,"Plasma pharmacokinetic parameters, alone versus in combination",[1],unchanged
same,AUC,[1]; [2],10400 ± 1150 ng·h/mL
same,clearance,[1]; [2],32.5 mL/min/kg
same,half-life,[1]; [2],23.4 ± 6.6 min
same,AUC,[1]; administered alone,11000 ± 860 ng·h/mL
same,clearance,[1]; administered alone,33 mL/min/kg
same,half-life,[1]; administered alone,43.2 ± 9 min
